Values after ≈ are worked out from the molar mass of the structure shown.
Legend:
[1] = Distribution coefficient between 1-octanol and aqueous phosphate buffer, logD of the compound in pH 7.4 buffer; format: physicochemical; settings: 1-octanol/aqueous phosphate buffer
[2] = molecular target: T1, Nuclear receptor ROR-gamma (Homo sapiens, UniProt P51449)
T1 sequence (P51449 whole entry): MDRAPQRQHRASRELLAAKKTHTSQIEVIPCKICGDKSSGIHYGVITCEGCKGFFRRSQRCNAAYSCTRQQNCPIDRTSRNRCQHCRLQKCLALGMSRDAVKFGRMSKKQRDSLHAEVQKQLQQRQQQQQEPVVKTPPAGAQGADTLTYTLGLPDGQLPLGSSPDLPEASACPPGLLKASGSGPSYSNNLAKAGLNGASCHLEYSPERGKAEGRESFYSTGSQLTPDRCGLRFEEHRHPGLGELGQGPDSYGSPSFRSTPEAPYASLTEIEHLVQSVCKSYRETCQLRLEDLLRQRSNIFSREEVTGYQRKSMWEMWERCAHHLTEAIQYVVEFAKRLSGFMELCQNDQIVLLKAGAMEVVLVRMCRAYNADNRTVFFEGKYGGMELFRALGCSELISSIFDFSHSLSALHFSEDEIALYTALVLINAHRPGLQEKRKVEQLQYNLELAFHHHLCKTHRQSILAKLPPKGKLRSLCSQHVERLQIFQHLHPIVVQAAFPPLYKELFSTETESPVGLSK

[3] = molecular target: T1, Nuclear receptor ROR-gamma; assay: Inverse agonist activity at RORgammat in human TH17 cells assessed as inhibition of IL17 release incubated for 4 days by HTRF assay; format: cell-based
physchem = settings: aqueous buffer, pH 7.4
Description: Solubility in aqueous buffer at pH 7.4

[4] = Permeability from apical to basolateral side in human Caco2 cells; format: ADME, cell-based; settings: for Papp A→B: Caco-2, read-out: permeability; for permeability: Caco-2
[5] = Cytotoxicity in human Th17 cells assessed as effect on cell viability by cell-titer-Glo luminescent cell viability assay relative to control; format: cell-based; settings: read-out: Efficacy
[6] = Permeability in human Caco2 cells assessed as drug recovery; format: ADME, cell-based; settings: Caco-2, read-out: Drug recovery
[7] = Efflux ratio of permeability in human Caco2 cells; format: ADME, cell-based; settings: Caco-2
[8] = Unbound fraction in human plasma by equilibrium dialysis; format: ADME, cell-free
[9] = Permeability from basolateral to apical side in human Caco2 cells; format: ADME, cell-based; settings: for Papp B→A: Caco-2, read-out: permeability; for permeability: Caco-2
[10] = molecular target: T1, Nuclear receptor ROR-gamma; remark: listed apart in the source
Description: Displacement of [3H]-2-(4-(ethylsulfonyl)phenyl)-N-(4-(2-(methoxymethyl)phenyl)thiophen-2-yl)acetamide from purified N-(HN)6-GST-TCS-human RORgammat (258 to 518 residues) incubated for 16 hrs by scintillation proximity assay

[11] = Volume of distribution at steady state in Han Wistar rat at 0.5 mg/kg, iv or 1 mg/kg, po; format: ADME, organism-based; settings: in vivo, read-out: Vdss
[12] = Intrinsic clearance in rat hepatocytes assessed per million cells; format: ADME, cell-based, Hepatocyte; settings: read-out: CLH
[13] = Half life in Han Wistar rat at 0.5 mg/kg, iv or 1 mg/kg, po; format: ADME, organism-based; settings: in vivo
[14] = Oral bioavailability in Han Wistar rat at 1 mg/kg; format: ADME, organism-based; settings: in vivo
[15] = Oral absorption in Han Wistar rat at 1 mg/kg; format: ADME, organism-based; settings: in vivo, read-out: Fabs
[16] = Intrinsic clearance in human hepatocytes assessed per million cells; format: ADME, cell-based, Hepatocyte; settings: read-out: CLH
hERG (KCNH2) = hERG (KCNH2) (Homo sapiens, UniProt Q12809); assay: Inhibition of human ERG at 11 uM
hERG (KCNH2), sequence (Q12809 whole entry): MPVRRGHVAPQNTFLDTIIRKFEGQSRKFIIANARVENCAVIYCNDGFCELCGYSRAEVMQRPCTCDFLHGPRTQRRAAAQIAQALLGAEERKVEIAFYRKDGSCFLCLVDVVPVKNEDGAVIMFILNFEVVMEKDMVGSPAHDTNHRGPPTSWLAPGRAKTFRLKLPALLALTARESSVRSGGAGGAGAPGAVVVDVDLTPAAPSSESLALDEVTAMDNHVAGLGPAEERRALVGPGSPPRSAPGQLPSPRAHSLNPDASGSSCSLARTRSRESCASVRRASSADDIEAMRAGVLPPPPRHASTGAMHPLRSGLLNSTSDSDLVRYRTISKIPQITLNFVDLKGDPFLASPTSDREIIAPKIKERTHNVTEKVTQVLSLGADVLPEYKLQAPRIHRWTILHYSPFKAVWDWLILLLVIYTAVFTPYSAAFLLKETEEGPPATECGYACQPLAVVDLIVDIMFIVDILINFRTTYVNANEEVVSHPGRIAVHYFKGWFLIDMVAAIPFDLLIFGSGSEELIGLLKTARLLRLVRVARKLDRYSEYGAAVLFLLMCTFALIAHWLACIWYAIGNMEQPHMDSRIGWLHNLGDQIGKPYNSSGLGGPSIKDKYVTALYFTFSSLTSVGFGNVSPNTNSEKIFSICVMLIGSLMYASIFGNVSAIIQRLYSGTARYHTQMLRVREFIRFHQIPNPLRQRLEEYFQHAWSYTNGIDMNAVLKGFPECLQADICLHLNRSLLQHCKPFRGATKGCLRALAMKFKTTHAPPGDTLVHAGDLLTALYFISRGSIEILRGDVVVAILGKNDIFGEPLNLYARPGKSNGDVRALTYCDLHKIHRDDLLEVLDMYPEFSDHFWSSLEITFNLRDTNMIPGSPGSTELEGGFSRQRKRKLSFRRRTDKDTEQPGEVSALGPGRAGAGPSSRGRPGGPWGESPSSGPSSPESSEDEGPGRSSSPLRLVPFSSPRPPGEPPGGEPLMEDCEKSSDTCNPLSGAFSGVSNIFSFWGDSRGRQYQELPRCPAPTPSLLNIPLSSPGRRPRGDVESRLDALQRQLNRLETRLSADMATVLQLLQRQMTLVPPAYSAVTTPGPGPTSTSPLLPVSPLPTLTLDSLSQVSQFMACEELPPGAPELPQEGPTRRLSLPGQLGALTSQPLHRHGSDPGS

[17] = Clearance in Han Wistar rat at 0.5 mg/kg, iv or 1 mg/kg, po; format: ADME, organism-based; settings: in vivo
[18] = Selectivity index, ratio of cytotoxicity in human Th17 cells to IC50 for inverse agonist activity at RORgammat in human TH17 cells assessed as inhibition of IL17 release; format: toxicity, cell-based
[19] = molecular target: T2, Nuclear receptor ROR-alpha (Homo sapiens, UniProt P35398); assay: Inverse agonist activity at His6-tcs-human RORalpha LBD assessed as inhibition of biotinylated PGC1alpha (130 to 154 residues) peptide recruitment incubated for 1 hr by HTRF-FRET assay
T2 sequence (P35398 whole entry): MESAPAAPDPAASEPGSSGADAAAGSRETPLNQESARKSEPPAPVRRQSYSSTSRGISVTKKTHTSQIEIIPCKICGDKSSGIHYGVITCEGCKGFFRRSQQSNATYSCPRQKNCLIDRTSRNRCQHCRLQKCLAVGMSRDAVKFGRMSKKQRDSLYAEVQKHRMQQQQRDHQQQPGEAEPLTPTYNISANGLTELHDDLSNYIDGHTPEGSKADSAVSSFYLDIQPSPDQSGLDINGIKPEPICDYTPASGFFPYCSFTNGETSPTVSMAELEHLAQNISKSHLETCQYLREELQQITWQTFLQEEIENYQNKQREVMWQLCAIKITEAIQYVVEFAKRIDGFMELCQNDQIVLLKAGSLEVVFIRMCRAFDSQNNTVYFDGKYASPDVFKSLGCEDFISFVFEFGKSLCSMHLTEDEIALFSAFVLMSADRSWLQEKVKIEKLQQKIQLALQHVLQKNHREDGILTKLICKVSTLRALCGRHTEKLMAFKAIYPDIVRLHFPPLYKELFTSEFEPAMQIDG

[20] = molecular target: T2, Nuclear receptor ROR-alpha; assay: Agonist activity at His6-tcs-human RORalpha LBD assessed as stimulation of biotinylated PGC1alpha (130 to 154 residues) peptide recruitment incubated for 1 hr by HTRF-FRET assay; settings: read-out: IC50 (the source's name)
[21] = Stability in pH 7.4 buffer solution at 37 degC measured over 2 days; format: physicochemical; settings: pH 7.4, 48 h
[22] = Stability in pH 5 buffer solution at 37 degC measured over 2 days; format: physicochemical; settings: pH 5, 48 h
[23] = Stability in pH 8 buffer solution at 37 degC measured over 2 days; format: physicochemical; settings: pH 8, 48 h
[24] = molecular target: T3, Nuclear receptor ROR-beta (Homo sapiens, UniProt Q92753); assay: Displacement of [3H]ATRA from 6H-AVI-GST-TEV-human RORbeta (T221 to K470 residues) pre-incubated for 30 mins before [3H]ATRA addition and measurted ater 18 to 23 hrs by scintillation proximity assay
T3 sequence (Q92753 whole entry): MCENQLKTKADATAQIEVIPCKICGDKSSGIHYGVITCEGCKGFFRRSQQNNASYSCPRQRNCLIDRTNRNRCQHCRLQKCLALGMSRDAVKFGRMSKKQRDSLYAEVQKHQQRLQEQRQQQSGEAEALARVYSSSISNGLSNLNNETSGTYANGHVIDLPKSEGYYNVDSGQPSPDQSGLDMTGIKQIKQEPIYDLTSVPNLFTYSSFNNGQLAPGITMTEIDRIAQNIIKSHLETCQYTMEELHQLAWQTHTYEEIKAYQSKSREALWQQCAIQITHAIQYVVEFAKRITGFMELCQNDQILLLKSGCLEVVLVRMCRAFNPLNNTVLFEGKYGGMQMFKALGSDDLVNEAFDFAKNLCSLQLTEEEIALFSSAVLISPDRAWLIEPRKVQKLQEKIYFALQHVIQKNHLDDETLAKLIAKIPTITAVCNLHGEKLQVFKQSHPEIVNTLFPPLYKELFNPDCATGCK

| SMILES | logD [1] | IC50 [2] [nM] | IC50 [3] [nM] | solubility (physchem) [µM] | Papp A→B [4] [×10⁻⁶ cm/s] | Emax [5] [%] | efflux ratio [7] | fraction unbound [8] | Papp B→A [9] [×10⁻⁶ cm/s] | IC50 [10] [nM] | Vd [11] [L/kg] | hepatocyte CLint [12] [µL/min/1e6 cells] | half-life [13] [h] | bioavailability [14] [%] | Fa [15] [%] | hepatocyte CLint [16] [µL/min/1e6 cells] | inhibition at 11 µM (hERG (KCNH2)) [%] | clearance [17] [mL/min/kg] | IC50 [19] [nM] | EC50 [20] [nM] | other results |
| --- | --- | --- | --- | --- | --- | --- | --- | --- | --- | --- | --- | --- | --- | --- | --- | --- | --- | --- | --- | --- | --- |
| CCS(=O)(=O)c1ccc(CC(=O)Nc2cc(-c3cccc(Cl)c3)c(C(=O)c3ccccc3Cl)s2)cc1 | 4.5 | 23 | 6 | < 0.1 | < 0.001 | 40 | > 324 | < 0.002 | 0.6 | 2 | – | – | – | – | – | – | – | – | – | – | recovery [6]: 52% |
| CCS(=O)(=O)c1ccc(CC(=O)Nc2cc(-c3cc(C#N)cc(F)c3OC)cs2)cc1 | 3.9 | 30 | 700 | 0.4 to 0.6 (≈ 0.183 to 0.275 µg/mL) | 1.8 | 60 | 3.9 | 0.0017 to 0.002 | 7.1 | 20 | 0.48 | 11.3 | 1.2 | 85 | 92 | 5.6 | 43 | 5.5 | – | – | recovery [6]: 41%; selectivity ratio [18]: < 10 |
| CCS(=O)(=O)c1ccc([C@@H](NC(C)=O)C(=O)Nc2cc(-c3cccnc3OCc3ccc(OC(F)(F)F)cc3)cs2)cc1 | 4.7 | 34 | 11 | 0.3 (≈ 0.19 µg/mL) | < 0.001 | – | > 1500 | 0.001 | 42 | 3 | 2.4 | 8.9 to 12 | 4.3 | < 1 | < 1.2 | 8.5 | 8 | 12 | 9400 | > 33000 | Stability [21]: Stable; Stability [22]: Stable; Stability [23]: Stable; IC50 [24]: > 10000 nM |
| CCS(=O)(=O)c1ccc(C(NC(C)=O)C(=O)Nc2cc(-c3cc(C#N)cnc3OCC(F)(F)F)cs2)cc1 (centres undefined) | 3.7 | 72 | 49 | 3.6 (≈ 2.04 µg/mL) | – | – | – | 0.002 | – | 7 | – | < 1 | – | – | – | – | 3 | – | 600 | > 33000 | IC50 [24]: > 10000 nM |
| CCS(=O)(=O)c1ccc(CC(=O)Nc2cc(-c3cccnc3OCc3ccc(OC(F)(F)F)cc3)cs2)cc1 | – | 30 | 25 | 0.7 (≈ 0.404 µg/mL) | – | 40 | – | < 0.0002 | – | 7 | 3.8 | 40 | 1.4 | 10 | 30 | 8.6 | 0 | 46.5 | > 33000 | > 33000 | permeability [4]: Impermeable; Ratio [7]: Impermeable; IC50 [24]: > 10000 nM; selectivity ratio [18]: 100; permeability [9]: Impermeable |
| CCS(=O)(=O)c1ccc(CC(=O)Nc2cc(-c3cc(C#N)cnc3OCC(F)(F)F)cs2)cc1 | – | 30 | 65 | 0.2 (≈ 0.102 µg/mL) | – | – | – | 0.0006 | – | 2 | 0.23 | 7.5 | 4.4 | 36 | 36 | 5.9 | 47 | 0.8 | 6200 | > 33000 | permeability [4]: Impermeable; Ratio [7]: Impermeable; permeability [9]: Impermeable |
| CCS(=O)(=O)c1ccc([C@H](NC(C)=O)C(=O)Nc2cc(-c3cccnc3OCc3ccc(OC(F)(F)F)cc3)cs2)cc1 | 4.7 | 3530 | 23 | – | – | – | – | – | – | 270 | – | 18 | – | – | – | – | – | – | – | – | Stability [21]: Stable; Stability [22]: Stable; Stability [23]: Stable |
| CCS(=O)(=O)c1ccc(CC(=O)Nc2cc(-c3cccnc3Oc3ccc(OC(F)(F)F)cc3)cs2)cc1 | – | – | 144 | 2.5 (≈ 1.41 µg/mL) | – | – | – | < 0.001 | – | 33 | 2.8 | 20 | 1.6 | 45 | 67 | 11.9 | 14 | 24 | > 33000 | > 33000 | permeability [4]: Impermeable; Ratio [7]: Impermeable; permeability [9]: Impermeable |

Source: ChEMBL document CHEMBL4145688, “Potent and Orally Bioavailable Inverse Agonists of RORγt Resulting from Structure-Based Design” (J Med Chem, 2018)
